Data taken from BindingDB's records for doi:10.1021/jm049787k (Pharmaceutical Research Institute, 2004).

Molecular target: Corticotropin-releasing factor receptor 2 (Sus scrofa)
Test: Inhibition of [125I]- sauvagine binding to corticotropin releasing factor receptor 2 of porcine choroid plexus

IC50: > 10 µM
Compound: CCc1nc2c(n1C(C1CC1)C1CC1)C(=O)N(C)CN2c1ccc(Cl)cc1Cl [3-(2,4-Dichloro-phenyl)-7-dicyclopropylmethyl-8-ethyl-1-methyl-1,2,3,7-tetrahydro-purin-6-one]
